Laboratory results as given in ChEMBL document CHEMBL1141233, “3-(5-Chloro-2,4-dihydroxyphenyl)-pyrazole-4-carboxamides as inhibitors of the Hsp90 molecular chaperone” (Bioorg Med Chem Lett, 2005).

What was measured:
[1] = molecular target: Heat shock protein HSP90 (Homo sapiens, UniProt P07900+P08238); assay: Binding affinity to Hsp90 by fluorescent polarization assay; type: protein assay
[2] = test system: HCT-116; assay: Inhibition of cell proliferation in HCT116 human colon cancer cell line; type: functional

| IC50 [1] | GI50 [2] | SMILES |
| --- | --- | --- |
| 7.1 µM | – | O=C(Nc1ccccc1)c1cn[nH]c1-c1cc(Cl)c(O)cc1O |
| 12.8 µM | > 80 µM | O=C(NCc1ccccc1)c1cn[nH]c1-c1cc(Cl)c(O)cc1O |
| 31.5 µM | 59.7 µM | CC(=O)Nc1ccc(NC(=O)c2c[nH]nc2-c2cc(Cl)c(O)cc2O)cc1 |
| > 50 µM | – | O=C(Nc1ccccn1)c1cn[nH]c1-c1cc(Cl)c(O)cc1O |
| 14.7 µM | > 80 µM | O=C(Nc1ccc(O)cc1)c1c[nH]nc1-c1cc(Cl)c(O)cc1O |
| 35.6 µM | – | O=C(NCc1ccco1)c1cn[nH]c1-c1cc(Cl)c(O)cc1O |
| – | 11.6 µM | CC(=O)c1ccc(NC(=O)c2cn[nH]c2-c2cc(Cl)c(O)cc2O)cc1 |
| 6 µM | 60.7 µM | COc1ccc(CNC(=O)c2c[nH]nc2-c2cc(Cl)c(O)cc2O)cc1 |

The next lines start with the compound.

| SMILES | IC50 [1] | GI50 [2] |
| --- | --- | --- |
| O=C(NCc1cccc(C(F)(F)F)c1)c1cn[nH]c1-c1cc(Cl)c(O)cc1O | 5.4 µM | 45 µM |
| COc1cccc(NC(=O)c2c[nH]nc2-c2cc(Cl)c(O)cc2O)c1 | 11.7 µM | > 80 µM |
| O=C(NCc1ccc(F)cc1)c1cn[nH]c1-c1cc(Cl)c(O)cc1O | 5.35 µM | 56.2 µM |
| COc1ccc(NC(=O)c2c[nH]nc2-c2cc(Cl)c(O)cc2O)cc1 | 6 µM | > 80 µM |
| COc1cccc(CNC(=O)c2c[nH]nc2-c2cc(Cl)c(O)cc2O)c1 | 10.7 µM | > 80 µM |
| COc1ccc(N(C)C(=O)c2c[nH]nc2-c2cc(Cl)c(O)cc2O)cc1 | > 50 µM | – |
| NS(=O)(=O)c1ccc(CNC(=O)c2cn[nH]c2-c2cc(Cl)c(O)cc2O)cc1 | – | > 80 µM |
| O=C(Nc1ccc(Cl)cc1)c1cn[nH]c1-c1cc(Cl)c(O)cc1O | 6.9 µM | > 80 µM |
